# PMC10035507, “Inhibiting IGF1R-mediated Survival Signaling in Head and Neck Cancer with the Peptidomimetic SSTNIGF1R” (Cancer Research Communications, 2023)
# Ends that are not written are not given here.
# What was measured:
# [1] = tested on: UM-SCC47 cells; experiment: Caspase assay (Caspase 3/7-GLO); type: cell-based, human; conditions: 24 hours, increasing concentrations of NQD1 up to 30 μmol/L
# Experimental: (§1) The activation of stress/apoptosis markers was analyzed as described previously ([17]). Caspase activity was measured in cells in complete culture medium with SSTNIGF1R or ASK inhibitor for 24 hours using Caspase 3/7-GLO in accordance with the manufacturer's instructions.
# [2] = tested on: UM-SCC47 cells
# [3] = tested on: SCC25 cells
# [4] = tested on: UM-SCC1 HNSCC cell line; experiment: Cell proliferation assay (CellTiter-GLO); type: cell-based, human; conditions: 4 days, up to 30 μmol/L, n = 4
# Experimental: (§2) Cells (1–2 × 10^3/well) were plated in 96-well plates in complete culture medium in the presence or absence of the SSTNIGF1R peptide for 72–120 hours, or alternatively in the presence or absence of the SSTNIGF1R peptide or ASK inhibitor for 24 hours. Cell growth was measured against a standard curve using CellTiter-GLO, in accordance with the manufacturer's instructions.
# [5] = tested on: UD-SCC2 HNSCC cell line; experiment: Cell proliferation assay (CellTiter-GLO); type: cell-based, human; conditions: 4 days, up to 30 μmol/L, n = 4
# Experimental: as §2
# [6] = tested on: HaCaT keratinocytes; experiment: Cell proliferation assay (CellTiter-GLO); type: cell-based, human; conditions: 4 days, up to 30 μmol/L, n = 3
# Experimental: as §2
# [7] = tested on: TU-138 HNSCC cell line; experiment: Cell proliferation assay (CellTiter-GLO); type: cell-based, human; conditions: 4 days, up to 30 μmol/L, n = 4
# Experimental: as §2
# [8] = tested on: SCC6 HNSCC cell line; experiment: Cell proliferation assay (CellTiter-GLO); type: cell-based, human; conditions: 4 days, up to 30 μmol/L, n = 4
# Experimental: as §2
# [9] = tested on: SCC90 HNSCC cell line; experiment: Cell proliferation assay (CellTiter-GLO); type: cell-based, human; conditions: 4 days, up to 30 μmol/L, n = 4
# Experimental: as §2
# [10] = tested on: normal HTE cells; experiment: Cell proliferation assay (CellTiter-GLO); type: cell-based, human; conditions: 4 days, up to 30 μmol/L, n = 3
# Experimental: as §2
# [11] = tested on: NOKs (normal oral keratinocytes); experiment: Cell proliferation assay (CellTiter-GLO); type: cell-based, human; conditions: NOK, 4 days, up to 30 μmol/L, n = 3
# Experimental: as §2
# [12] = tested on: ASK1 (pT845), pp38MAPK, pJNK in UM-SCC47 cells; experiment: Temporal activation of ASK1, p38MAPK and JNK; type: cell-based, human; conditions: 30 minutes after treatment with 30 μmol/L hSSTNIGF1R
# [13] = allows use as a therapeutic agent in vivo; cited from earlier work
# [14] = Serum IGF1 ELISA; type: in vivo, mice; conditions: for IGF1 (ng/mL) ± SD: hSSTNIGF1R delivered by Alzet pumps, ELISA, n = 6
# Experimental: (§3) SSTNIGF1R levels in the serum of treated animals were measured in triplicate using an AB Sciex QTrap 5500 mass spectrometry system at the UW School of Pharmacy and quantified by comparison with a standard curve of peptide in mouse serum. IGF1 levels in the serum of animals bearing UW-SCC22 or UW-SCC64 tumors were measured using an ELISA kit from Thermo Fisher Scientific (EMIGF1) and compared with a mouse IGF1 standard according to the manufacturer's instructions.
# [15] = tested on: UW-SCC22 HNSCC PDX; experiment: PDX tumor growth in nude mice; type: in vivo; conditions: 4 weeks; for reduction of tumor growth compared with controls: P < 0.001
# Source text: (§4) Animal studies were approved by the University of Wisconsin–Madison Institutional Animal Care and Use Committee in accordance with the NIH guidelines. UW-SCC22 or UW-SCC64 PDXs derived from head and neck tumors ([31, 32]) were provided by Wisconsin Head and Neck Cancer SPORE (https://hn-spore.wisc.edu). Minced tissue isolated from host mice was subcutaneously injected into both flanks of 6–8 weeks old female, athymic Foxn1^nu outbred nude mice (Harlan Laboratories). After 1 week, animals were randomized and surgically implanted with Alzet (Durect Corp.) osmotic pumps (Model 2004) delivering 0.25 μL/hour of either PBS or PBS containing 4 mmol/L hSSTNIGF1R for 4 weeks. Animals were humanely sacrificed, bled, and tumors were removed and fixed in 4% paraformaldehyde before paraffin embedding and sectioning.
# [16] = tested on: UW-SCC64 PDX; experiment: PDX tumor growth in nude mice; type: in vivo; conditions: peptide delivered by the pump only, P < 0.001
# Source text: as §4
# [17] = tested on: ASK-1 in UW-SCC64 PDX tumors; experiment: pT845-ASK1 staining of tumor sections; type: in vivo, nude mice; conditions: as early as the 3-day timepoint
# Experimental: (§5) Paraffin-embedded PDX sections, sections of deidentified archival tumors from patients with tonsil carcinoma, or TMAs assembled from patients with deidentified oropharyngeal (TMA-01, TMA-02) or adenoid cystic (TMA-03) carcinoma were deparaffinized and subjected to antigen retrieval by heating in 10 mmol/L sodium citrate (pH 6.0) with 0.05% Tween 20 until boiling and then maintained at 99°C for 20 minutes before cooling to room temperature. The sections were then used for receptor and PLA staining, as described above. Fluorescent images were acquired using either a Zeiss PlanAPOCHROMAT 20X objective (0.8 NA) or 40X (1.4 NA) and a Zeiss AxioCam Mrm CCD camera on a Zeiss Axio Imager.M2 microscopy system. CellProfiler 3.1.5 (Carpenter Lab, Broad Institute of Harvard and MIT) was used to quantify nuclei and PLA signals with threshold limits based on relevant comparative controls. Cell Profiler software analysis was checked by direct comparison with visual quantification of PLA dots or DAPI-stained nuclei in test images to accurately quantify PLA dots per cell and to exclude false or background fluorescence. The specificity of the antibodies used and the concentrations of PLA reagents used were optimized on test samples before use on experimental sections.
# [18] = tested on: ASK-1 in UW-SCC22 PDX tumors; experiment: pT845-ASK1 staining of tumor sections; type: in vivo, nude mice; conditions: UW-SCC22 tumors treated by injection or pump for 4 weeks
# Experimental: as §5
# [19] = tested on: HTE; experiment: Stress and apoptosis marker antibody array; type: cell-based, human; conditions: 16 hours, 30 μmol/L (mSSTNIGF1R per Fig. 4B)
# Experimental: as §1
# [20] = tested on: HaCaT keratinocyte; experiment: Stress and apoptosis marker antibody array; type: cell-based, human; conditions: 16 hours, 30 μmol/L (mSSTNIGF1R per Fig. 4B)
# Experimental: as §1
# [21] = tested on: UM-SCC47 cells; experiment: Stress and apoptosis marker antibody array; type: cell-based, human; conditions: UM-SCC47 lysates; 16 hours, 30 μmol/L (mSSTNIGF1R per Fig. 4B); compared with vehicle
# Experimental: as §1
# [22] = tested on: SCC25 cells; experiment: Stress and apoptosis marker antibody array; type: cell-based, human; conditions: SCC25 lysates; 16 hours, 30 μmol/L (mSSTNIGF1R per Fig. 4B); compared with vehicle
# Experimental: as §1
# [23] = tested on: NOK; experiment: Stress and apoptosis marker antibody array; type: cell-based, human; conditions: 16 hours, 30 μmol/L (mSSTNIGF1R per Fig. 4B)
# Experimental: as §1
# [24] = Serum peptide analysis by mass spectrometry; conditions: mouse, in vivo, sc, mice, following sacrifice, 4.3 mg/kg/day by twice weekly subcutaneous injection, triplicate, read-out: steady-state concentration in plasma
# Experimental: as §3
# [25] = biological target: T1, IGF1R and ITGAV pairing (Sdc1:IGF1R:ITGAV receptor complex) in UM-SCC47 cells (Homo sapiens, UniProt P08069); experiment: Proximity ligation assay ITGAV:IGF1R in cultured cells; type: cell-based; conditions: UM-SCC47 cells pretreated for 6 hours with 30 μmol/L; 15 images over three experiments
# T1 construct: endogenous in cells; host or cells: UM-SCC47
# Experimental: (§6) UM-SCC47 cells treated with or without the SSTNIGF1R peptide for 6 hours were fixed in 4% paraformaldehyde, permeabilized in 0.5% Triton X-100 in 1× CMF-PBS (pH 7.4), and blocked for 1 hour at room temperature in a 3% BSA/CMF-PBS solution. Cells were stained with 1 μg/mL anti-Sdc1 polyclonal antibody, 2 μg/mL ITGAV antibody (NBP1-85746), or 4 μg/mL antibody to IGF1R (AF-305-NA) for 1 hour at room temperature, followed by incubation with 4 μg/mL Alexa488-conjugated secondary antibodies for 1 hour at room temperature. The nuclei were stained with 3 μmol/L DAPI (Molecular Probes) in 1× CMF-PBS (pH 7.4) for 10 minutes. For PLA, antibodies against ITGAV and IGF1R were used as described previously, followed by staining with PLA reagents according to the manufacturer's instructions.
# [26] = biological target: T2, ITGAV and IGF1R pairing in UW-SCC22 PDX tumors (Homo sapiens, UniProt P08069); experiment: PLA between IGF1R and ITGAV on tumor sections; type: in vivo, nude mice; conditions: 4 weeks
# T2 construct: from tissue; host or cells: UW-SCC22 and UW-SCC64 PDX tumours, subcutaneous in nude mice
# Experimental: as §5
# [27] = biological target: T3, ITGAV and IGF1R pairing in UW-SCC64 PDX tumors (Homo sapiens, UniProt P08069); experiment: PLA between IGF1R and ITGAV on tumor sections; type: in vivo, nude mice; conditions: pump
# T3 construct: from tissue; host or cells: UW-SCC22 and UW-SCC64 PDX tumours, subcutaneous in nude mice
# Experimental: as §5
# [28] = biological target: T4, IGF1R in UM-SCC47 cells (Homo sapiens, UniProt P08069); experiment: IGF1R activation (pY1131) by immunoprecipitation and Western blot; type: cell-based; conditions: 3 hours, 100 ng/mL DES(1–3)IGF1, 30 μmol/L hSSTNIGF1R
# T4 construct: constitutively active IGF1R is identified in UW-SCC47 cells by staining for pY1131; endogenous in cells; host or cells: UM-SCC47
# Experimental: (§7) Immunoprecipitation of IGF1R with or without competing SSTN peptide was carried out as described previously ([18, 19]) using 0.5–1.0 mg of input/sample and lysis buffer supplemented with HALT protease and phosphatase inhibitor cocktail (Thermo Fisher Scientific).
# [29] = biological target: T5, IGF1R in HaCat cells (Homo sapiens, UniProt P08069); experiment: as above; type: cell-based; conditions: 3 hours, 100 ng/mL DES(1–3)IGF1, 30 μmol/L hSSTNIGF1R
# T5 construct: endogenous in cells; host or cells: HaCat
# Experimental: as §7
# [30] = tested on: Sdc1, IGF1R, ITGAV cell surface expression in UM-SCC47 cells; experiment: Immunofluorescent receptor staining of cultured cells; type: cell-based, human; conditions: UM-SCC47 cells pretreated 6 hours with 30 μmol/L, compared with vehicle alone
# Experimental: as §6
# T2 sequence (P08069 31-736 limits assumed): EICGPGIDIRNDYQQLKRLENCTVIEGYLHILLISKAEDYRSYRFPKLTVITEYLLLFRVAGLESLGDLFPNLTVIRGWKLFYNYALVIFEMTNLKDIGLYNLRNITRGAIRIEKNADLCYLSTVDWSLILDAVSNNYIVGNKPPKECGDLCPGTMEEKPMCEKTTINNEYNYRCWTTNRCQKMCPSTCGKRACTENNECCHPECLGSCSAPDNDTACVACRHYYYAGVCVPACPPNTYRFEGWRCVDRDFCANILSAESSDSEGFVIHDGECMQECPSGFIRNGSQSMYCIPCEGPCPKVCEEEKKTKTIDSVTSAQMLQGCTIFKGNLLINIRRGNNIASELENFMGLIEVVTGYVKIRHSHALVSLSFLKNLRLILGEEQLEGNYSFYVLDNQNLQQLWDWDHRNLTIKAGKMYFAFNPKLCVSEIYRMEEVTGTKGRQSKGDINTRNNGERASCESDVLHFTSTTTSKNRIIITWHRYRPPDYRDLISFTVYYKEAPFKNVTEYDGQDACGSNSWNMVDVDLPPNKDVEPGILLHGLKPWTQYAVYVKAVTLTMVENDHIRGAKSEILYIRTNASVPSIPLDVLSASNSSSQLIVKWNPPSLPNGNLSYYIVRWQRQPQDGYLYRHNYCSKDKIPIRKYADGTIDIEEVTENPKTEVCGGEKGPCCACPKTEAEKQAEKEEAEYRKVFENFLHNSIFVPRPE
# T3 sequence (P08069 31-736 limits assumed): as above
# T1 sequence (P08069 31-736 limits assumed, one chain of several): as the sequence (P08069 31-736 limits assumed) above
# T5 sequence (P08069 31-1367): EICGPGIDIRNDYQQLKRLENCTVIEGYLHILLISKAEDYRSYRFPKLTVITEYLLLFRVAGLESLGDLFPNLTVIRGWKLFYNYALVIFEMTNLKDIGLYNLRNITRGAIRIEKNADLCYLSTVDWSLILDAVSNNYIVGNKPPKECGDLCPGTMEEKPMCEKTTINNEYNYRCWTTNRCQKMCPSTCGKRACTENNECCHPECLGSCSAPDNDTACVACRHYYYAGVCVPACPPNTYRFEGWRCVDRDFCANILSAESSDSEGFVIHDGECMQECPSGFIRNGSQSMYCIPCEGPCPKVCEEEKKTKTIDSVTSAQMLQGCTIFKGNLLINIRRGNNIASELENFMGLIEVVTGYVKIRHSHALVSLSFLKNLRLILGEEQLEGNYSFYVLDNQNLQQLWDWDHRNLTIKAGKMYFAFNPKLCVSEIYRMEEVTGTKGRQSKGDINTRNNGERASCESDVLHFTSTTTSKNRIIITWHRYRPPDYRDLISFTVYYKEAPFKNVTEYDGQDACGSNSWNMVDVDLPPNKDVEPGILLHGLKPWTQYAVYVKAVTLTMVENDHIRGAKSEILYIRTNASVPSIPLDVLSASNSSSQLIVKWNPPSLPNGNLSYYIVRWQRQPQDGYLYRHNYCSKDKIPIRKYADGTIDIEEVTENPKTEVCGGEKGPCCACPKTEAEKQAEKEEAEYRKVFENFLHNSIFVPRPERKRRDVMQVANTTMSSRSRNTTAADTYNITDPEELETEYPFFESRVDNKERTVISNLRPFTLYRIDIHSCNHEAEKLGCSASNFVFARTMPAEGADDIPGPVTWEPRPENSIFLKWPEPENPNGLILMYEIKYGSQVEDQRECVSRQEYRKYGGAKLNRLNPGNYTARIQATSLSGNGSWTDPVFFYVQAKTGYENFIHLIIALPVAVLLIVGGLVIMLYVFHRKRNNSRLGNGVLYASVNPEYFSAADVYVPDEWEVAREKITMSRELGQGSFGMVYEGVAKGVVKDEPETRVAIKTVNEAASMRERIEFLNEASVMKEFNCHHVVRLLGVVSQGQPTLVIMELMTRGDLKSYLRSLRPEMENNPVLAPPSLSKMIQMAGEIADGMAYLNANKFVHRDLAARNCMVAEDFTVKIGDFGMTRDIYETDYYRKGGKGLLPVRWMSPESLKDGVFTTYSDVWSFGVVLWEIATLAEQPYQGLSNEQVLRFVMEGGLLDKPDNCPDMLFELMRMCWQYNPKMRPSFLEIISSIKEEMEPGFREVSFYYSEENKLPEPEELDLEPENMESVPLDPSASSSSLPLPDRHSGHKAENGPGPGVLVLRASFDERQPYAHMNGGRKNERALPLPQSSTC
# T4 sequence (P08069 31-1367): as above
compound,measurement,setting,value
"CCOC(=O)c1c2c3c(cccc3[nH]c1=O)C(=O)c1ccccc1-2 [NQD1, NQDI-1]",caspase 3 activation induced by 30 μmol/L SSTNIGF1R,[1],gradually reduce
same,restoration of cell growth in the SSTN-treated cells,"[2]; UM-SCC47, 24 hours, NQD1 up to 30 μmol/L with 30 μmol/L SSTNIGF1R, CellTiter-GLO",80%
"inactive mSSTNIGF1R: Inactive control peptide, amino acids 94–119 of mouse Sdc1 (AGEKPEEGEPVLHVEAEPGFTARDKE; UniProt P18828 94-119, looked up, fragment) [reference compound]",effect on cell numbers,"[3]; SCC25, up to 6 days, concentration range, CellTiter-GLO",no effect
same,effect on cell numbers,"[2]; UM-SCC47, up to 6 days, concentration range, CellTiter-GLO",no effect
LPAGEKPEEGEPVLHVEAEPGFTARDKE [active mSSTNIGF1R],IC50,[3],1 to 10 µM
same,IC50,[2],1 to 10 µM
same,cell growth,[4],reduced growth
same,cell growth,[5],reduced growth
same,cell growth,[6],unaffected
same,cell growth,[7],reduced growth
same,cell growth,[8],reduced growth
same,cell growth,[9],reduced growth
same,cell growth,[10],unaffected
same,cell growth,[11],unaffected
STSTLPAGEGPKEGEAVVLPEVEPGLTAREQE [hSSTNIGF1R],"active ASK1 (pT845), pp38MAPK, and pJNK",[12],increased
same,half-life,[13],~24 h
same,serum levels of IGF1,[14]; animals bearing UW-SCC22 tumors,no change
same,serum levels of IGF1,[14]; animals bearing UW-SCC64 tumors,no change
same,IGF1 (ng/mL) ± SD,"[14]; serum of mice bearing UW-SCC22, saline control 34.8 ± 1.0",34.6 ± 0.9 ng/mL
same,IGF1 (ng/mL) ± SD,"[14]; serum of mice bearing UW-SCC64, saline control 34.0 ± 0.9",33.7 ± 1.1 ng/mL
same,reduction of tumor growth compared with controls,"[15]; 4.3 mg/kg/day, Alzet pump",approximately 94%
same,tumor size after treatment,"[15]; 4.3 mg/kg/day, constant infusion via Alzet pump, start 102 ± 21 mm^3, saline 2,767 ± 631 mm^3",270 ± 49 mm^3
same,tumor size after treatment,"[15]; 4.3 mg/kg/day, twice weekly subcutaneous injection",664 ± 138 mm^3
same,reduction of tumor growth compared with controls,[15]; twice weekly subcutaneous injection,79%
same,reduction of tumor growth compared with saline-treated controls,[16],85%
same,pT845-ASK1 staining,[17],pT845 staining indicative of ASK-1 activation
same,pT845-ASK-1 staining,[18],Positive staining
same,change in apoptotic markers (antibody array),[19],little or no response
same,change in apoptotic markers (antibody array),[20],little or no response
same,change in apoptotic markers (antibody array),[21],"significant increases in activated caspase 3 and PARP, and reduced levels of survivin and phosphorylated Erk, Akt, and Bad"
same,change in apoptotic markers (antibody array),[22],"significant increases in activated caspase 3 and PARP, and reduced levels of survivin and phosphorylated Erk, Akt, and Bad"
same,change in apoptotic markers (antibody array),[23],little or no response
same,level at time molar,[24],13 µM
same,"PLA signal, colocalization of IGF1R and ITGAV",[25],signal is lost
same,reduction of ITGAV and IGF1R pairing (PLA),"[26]; plasma concentration 13 μmol/L (injection), versus saline-treated tumors",90%
same,ITGAV and IGF1R pairing (PLA),"[26]; plasma concentration 32 μmol/L, pump-mediated delivery",reduced to nearly undetectable levels
same,reduction of ITGAV and IGF1R pairing (PLA),[27]; UW-SCC64 tumors after 3-day treatment,80%
same,ITGAV and IGF1R pairing (PLA),"[27]; UW-SCC64 tumors, 5-week treatment",essentially abolished
same,IGF1-mediated activation of IGF1R (pY1131),[28],blocked
same,IGF1-mediated activation of IGF1R (pY1131),[29],unaffected
same,"cell surface expression of Sdc1, IGF1R, ITGAV",[30],no change
